# Source: US20160030407A1, “Method of Treating Inflammatory Lung Disease” (priority 2010, published 2016)
# Key:
# [1] = tested on: T cells, antigen presentation; experiment: Experimental Autoimmune Thyroiditis (Example 16A): lymphoid typing by flow cytometry; format: in vivo, mice; settings: p=0.0143
# Protocol: (§1) Thyroiditis was induced by injection of thyroglobulin emulsified in complete Freund's adjuvant […]. On days 0 and 7, female mice received subcutaneous injection of 100 μg thyroglobulin (2 injections of 50 μg each). Control mice drank water. […] Mice were sacrificed on day 21.
# Cervical lymph nodes were removed for lymphoid typing by flow cytometry. Spleen and peritoneal macrophages were removed for ex vivo stimulation.
# nAChR α4/β2 = target: T1, nAChR α4/β2 (Homo sapiens, UniProt P17787+P43681); experiment: nAChR α4/β2 channel agonist assay (FLIPR); format: cell-based; settings: 0.3-1000 μM
# T1 construct: host or cells: HEK293 cells, transient
# Protocol: Briefly, cells were incubated with […] dye for 30 min at 37° C.
# [2] = tested on: antibodies against thyroglobulin; experiment: Autoimmune thyroiditis model (Example 16B): thyroglobulin antibodies; format: in vivo, CBA/J mice; settings: 0.05 mg/ml in drinking water; day 21
# Protocol: In another experiment, eighteen CBA/J female mice were immunized with mouse thyroglobulin, emulsified in complete Freund's adjuvant, on day 0 and day 7. One group of mice (n=10) drank regular water. […] Mice were sacrificed 21 days after the first immunization to collect the thyroid gland and the blood. The thyroid was analyzed for the presence of infiltrating mononuclear cells. The blood was analyzed for the levels of antibodies against thyroglobulin.
# [3] = Plasma toxicokinetics after single i.v. bolus; format: in vivo, Sprague-Dawley rats; settings: for Concentration in rat plasma: Anatabine 0.1 mg/kg dose group, individual rats; for Avg. Conc. (Combined Male and Female) / Avg. Conc. (Male or Female): Rat Plasma; for half-life: Sprague-Dawley, iv
# Protocol: (§2) Six rats (3 males and 3 females) were dosed per dose group. […] Plasma and brain homogenates were stored at −80° C. until analysis.
# (§3) An additional 48 rats (24 males and 24 females) received a single intravenous dose via the tail vein at the same doses as mentioned above. At 30 and 360 minutes post administration, 6 rats (3 males and 3 females) per dose group, per time point were euthanized, bled via cardiac puncture, and perfused, and brains were collected. The brains were homogenized. Blood was spun, and plasma was collected. Plasma and brain homogenate were stored at −80° C.
# Four aliquots of each dose level formulation were collected and stored at −80° C. The test compound, corresponding dose level, number of animals, and sample collection times for Phase I of the study are shown in Table 3. The test compound, corresponding dose level, number of animals, and sample collection times for Phase II of the study are shown in Table 4. The physical signs of each animal were monitored following administration of the test compound.
# (§4) The animals were weighed prior to dosing and received a single i.v. dose of either test compound at a volume of 5 mL/kg. Blood was collected via the venus plexus (retro-orbital) into tubes containing (K2) EDTA. No more than 0.5 mL was collected per time point. […] The brain was removed, weighed, homogenized in sterile 0.9% saline at a volume equal to its weight, and stored at −80° C.
# Plasma was separated according to the instructions for MICROTAINER® brand collection tubes (3 minutes, 2000×g). Plasma was decanted into microfuge tubes and stored at −80° C. Remaining test compound was stored at −80° C.
# (§5) The amount of the test agent in the supernatant was determined by liquid chromatography tandem mass spectrometry (LC/MS/MS).
# (§6) Analysis. Samples were analyzed by LC/MS/MS using an Agilent 6410 mass spectrometer coupled with an Agilent 1200 high pressure liquid chromatography (HPLC) and a CTC PAL chilled autosampler, all controlled by MassHunter software (Agilent). After separation on a hydrophilic interaction liquid chromatography (HILIC) HPLC column (Sepax) using an acetonitrile-ammonium acetate/acetic acid gradient system, peaks were analyzed by mass spectrometry (MS) using ESI ionization in multiple reaction monitoring (MRM) mode. MassHunter software was used to calculate the concentration of the test compounds in samples from the peak area using the appropriate calibration curves.
# [4] = Brain extract concentrations after single i.v. bolus; format: in vivo, Sprague-Dawley rats; settings: for Concentration in rat brain extract: individual rats
# Protocol: as §2, §3, §4, §5, §6
# [5] = tested on: antibodies to PPD and thyroglobulin; experiment: Experimental Autoimmune Thyroiditis (Example 16A): serum antibodies to PPD and thyroglobulin; format: in vivo, mice
# Protocol: as §1
# Serum from control and anatabine-treated mice was examined to determine levels of antibodies to a foreign antigen (PPD).
# Levels of antibodies to thyroglobulin were examined on days 7, 14, and 21 after immunization.
# [6] = tested on: phosphorylated p65 (NFκB); experiment: p65 phosphorylation in brain after intracranial TNFα; format: in vivo, mice (B6/SJL); settings: mice, 2 mg/kg i.p., normalized to actin
# Protocol: After 5 minutes, mice were intracranially injected with 0.5 mg of TNFα. Mice were euthanized ten minutes after the intracranial injection. The portion of the brain surrounding the intracranial site of injection was collected, and proteins were extracted. Phosphorylation of p65 was measured with an antibody towards phosphorylated p65.
# [7] = rat plasma, single i.v. 0.1 mg/kg, female
# [8] = rat plasma, single i.v. 0.75 mg/kg, male
# [9] = rat plasma, single i.v. 0.1 mg/kg, M + F
# [10] = rat plasma, single i.v. 0.1 mg/kg, male
# [11] = rat plasma, single i.v. 0.75 mg/kg, M + F
# [12] = rat plasma, single i.v. 0.75 mg/kg, female
# [13] = rat plasma, single i.v. 1.0 mg/kg, M + F
# [14] = rat plasma, single i.v. 1.0 mg/kg, female
# [15] = rat plasma, single i.v. 1.0 mg/kg, male
# T1 sequence (P43681 29-627): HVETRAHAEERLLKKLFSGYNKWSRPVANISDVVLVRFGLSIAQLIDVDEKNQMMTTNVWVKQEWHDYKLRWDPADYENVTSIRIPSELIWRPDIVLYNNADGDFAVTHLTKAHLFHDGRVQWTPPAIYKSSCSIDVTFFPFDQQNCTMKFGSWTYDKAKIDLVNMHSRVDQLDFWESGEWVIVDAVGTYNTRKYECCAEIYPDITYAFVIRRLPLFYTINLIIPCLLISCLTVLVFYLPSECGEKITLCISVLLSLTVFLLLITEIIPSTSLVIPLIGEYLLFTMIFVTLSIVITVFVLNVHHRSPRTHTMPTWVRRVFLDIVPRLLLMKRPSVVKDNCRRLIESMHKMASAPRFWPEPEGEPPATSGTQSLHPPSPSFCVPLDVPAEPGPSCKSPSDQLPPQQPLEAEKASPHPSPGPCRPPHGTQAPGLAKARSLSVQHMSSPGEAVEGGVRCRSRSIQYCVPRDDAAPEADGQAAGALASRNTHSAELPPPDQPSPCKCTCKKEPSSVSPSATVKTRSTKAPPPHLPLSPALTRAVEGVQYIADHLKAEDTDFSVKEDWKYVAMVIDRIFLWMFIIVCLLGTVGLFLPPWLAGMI
# T1 sequence (P17787 26-502): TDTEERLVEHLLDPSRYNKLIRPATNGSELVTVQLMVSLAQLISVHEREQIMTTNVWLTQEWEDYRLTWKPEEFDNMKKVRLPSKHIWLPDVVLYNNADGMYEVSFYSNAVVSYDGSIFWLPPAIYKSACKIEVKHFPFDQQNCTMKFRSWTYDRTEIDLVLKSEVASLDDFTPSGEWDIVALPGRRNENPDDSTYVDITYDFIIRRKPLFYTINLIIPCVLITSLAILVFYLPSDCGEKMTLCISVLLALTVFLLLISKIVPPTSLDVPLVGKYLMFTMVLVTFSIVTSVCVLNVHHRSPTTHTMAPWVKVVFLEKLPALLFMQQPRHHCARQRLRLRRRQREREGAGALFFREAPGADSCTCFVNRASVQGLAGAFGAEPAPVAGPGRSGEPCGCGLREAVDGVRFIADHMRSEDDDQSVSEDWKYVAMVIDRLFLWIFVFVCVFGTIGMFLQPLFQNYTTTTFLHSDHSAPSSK
compound,measurement,setting,value
"C1=CCC(c2cccnc2)NC1 (racemic) [Anatabine, 1,2,3,6-tetrahydro-[2,3′]bipyridinyl]",activated T cells vs control,[1]; cervical lymph nodes,fewer activated T cells
same,regulatory T cells vs control,[1]; cervical lymph nodes,more regulatory T cells
same,regulatory T cells vs control,"[1]; cervical lymph nodes, listed as anatabine",fewer T regulatory cells than control mice
same,ability to present antigens vs control,[1],a lower ability to present antigens
same,agonist activity,nAChR α4/β2,full agonist activity
same,levels of thyroglobulin antibodies,[2],no effect on the levels of thyroglobulin antibodies
same,Concentration in rat plasma,"[3]; rat plasma, time point 4 hr",<LLQ
same,Concentration in rat plasma,"[3]; rat plasma, time point 6 hr",<LLQ
same,Concentration in rat plasma,"[3]; rat plasma, time point 8 hr",<LLQ
same,Concentration in rat plasma,"[3]; rat plasma, time point 24 hr",<LLQ
same,Avg. Conc. (Combined Male and Female),"[3]; Anatabine 0.1 mg/kg, 8 hr",<LLQ
same,Avg. Conc. (Combined Male and Female),"[3]; Anatabine 0.1 mg/kg, 24 hr",<LLQ
same,Avg. Conc. (Male or Female),"[3]; Anatabine 0.1 mg/kg, female, 8 hr",<LLQ
same,Avg. Conc. (Male or Female),"[3]; Anatabine 0.1 mg/kg, female, 24 hr",<LLQ
same,Avg. Conc. (Male or Female),"[3]; Anatabine 0.1 mg/kg, male, 6 hr (1st line)",<LLQ
same,Avg. Conc. (Male or Female),"[3]; Anatabine 0.1 mg/kg, male, 8 hr",<LLQ
same,Avg. Conc. (Male or Female),"[3]; Anatabine 0.1 mg/kg, male, 24 hr",<LLQ
same,Avg. Conc. (Combined Male and Female),"[3]; Anatabine 0.75 mg/kg, 24 hr",<LLQ
same,Avg. Conc. (Male or Female),"[3]; Anatabine 0.75 mg/kg, female, 24 hr",<LLQ
same,Avg. Conc. (Male or Female),"[3]; Anatabine 0.75 mg/kg, male, 24 hr",<LLQ
same,Avg. Conc. (Combined Male and Female),"[3]; Anatabine 1.0 mg/kg, 24 hr",<LLQ
same,Avg. Conc. (Male or Female),"[3]; Anatabine 1.0 mg/kg, female, 24 hr",<LLQ
same,Avg. Conc. (Male or Female),"[3]; Anatabine 1.0 mg/kg, male, 24 hr",<LLQ
same,half-life,[3]; [7],98.4 ± 35.4 min
same,half-life,[3]; [8],98.4 ± 7.2 min
same,half-life,"[3]; both sexes, rat plasma, single i.v. 0.75 mg/kg, M + F",101 ± 5.4 min
same,half-life,"[3]; both sexes, rat plasma, single i.v. 1.0 mg/kg, M + F",98.4 ± 15 min
same,apparent volume of distribution (VD) compared with nicotine,"[3]; rat plasma, single i.v.",significantly greater than that of nicotine
same,AUC0→∞,[3]; [9],35.0 ± 11.6 ng·h/mL
same,VD,[3]; [9],6.08 ± 0.45 L/kg
same,t1/2,[3]; [9],1.44 ± 0.48 h
same,AUC0→∞,[3]; [7],37.9 ± 15.9 ng·h/mL
same,VD,[3]; [7],6.52 ± 0.66 L/kg
same,AUC0→∞,[3]; [10],32.0 ± 7.7 ng·h/mL
same,VD,[3]; [10],5.29 ± 0.49 L/kg
same,t1/2,[3]; [10],1.25 ± 0.32 h
same,AUC0→∞,[3]; [11],504.4 ± 63.5 ng·h/mL
same,VD,[3]; [11],3.33 ± 0.13 L/kg
same,AUC0→∞,[3]; [12],544.5 ± 62.7 ng·h/mL
same,VD,[3]; [12],3.19 ± 0.15 L/kg
same,t1/2,[3]; [12],1.73 ± 0.03 h
same,AUC0→∞,[3]; [8],464.4 ± 36.2 ng·h/mL
same,VD,[3]; [8],3.48 ± 0.18 L/kg
same,AUC0→∞,[3]; [13],710.07 ± 88.4 ng·h/mL
same,VD,[3]; [13],3.08 ± 0.16 L/kg
same,AUC0→∞,[3]; [14],788.9 ng·h/mL
same,VD,[3]; [14],3.16 ± 0.15 L/kg
same,t1/2,"[3]; rat plasma, single i.v. 1.0 mg/kg, female, 1 mg/kg",1.84 h
same,AUC0→∞,[3]; [15],631.3 ng·h/mL
same,VD,[3]; [15],3.01 ± 0.12 L/kg
same,t1/2,"[3]; rat plasma, single i.v. 1.0 mg/kg, male, 1 mg/kg",1.44 h
same,plasma concentration between approximately 6 and 8 hours,"[3]; rat, single i.v., nicotine 0.4 mg/kg, anatabine 0.1 mg/kg",below the limits of quantitation
same,Concentration in rat brain extract,"[4]; Anatabine 0.1 mg/kg dose group, time point 0.5 hr",<LLQ
same,Concentration in rat brain extract,"[4]; Anatabine 0.1 mg/kg dose group, time point 6 hr",<LLQ
same,Concentration in rat brain extract,"[4]; Anatabine 0.1 mg/kg dose group, time point 24 hr",<LLQ
same,Concentration in rat brain extract,"[4]; Anatabine 0.75 mg/kg dose group, time point 24 hr",<LLQ
same,Concentration in rat brain extract,"[4]; Anatabine 1.0 mg/kg dose group, time point 6 hr",<LLQ
same,Concentration in rat brain extract,"[4]; Anatabine 1.0 mg/kg dose group, time point 24 hr",<LLQ
same,Avg. Conc. (Combined Male and Female),"[4]; Rat Brain, Anatabine 0.75 mg/kg, combined, 24 hr",<LLQ
same,Avg. Conc. (Male or Female),"[4]; Rat Brain, Anatabine 0.75 mg/kg, female, 24 hr",<LLQ
same,Avg. Conc. (Male or Female),"[4]; Rat Brain, Anatabine 0.75 mg/kg, male, 24 hr",<LLQ
same,Avg. Conc. (Male or Female),"[4]; Rat Brain, Anatabine 1.0 mg/kg, female, 24 hr",<LLQ
same,appearance in brain tissue,"[4]; rat, following i.v. administration",rapidly appear in brain tissue
same,Mean concentration in rat brain extracts,"[4]; single i.v. 0.75 mg/kg, female, 24 hr",<LLQ
same,Mean concentration in rat brain extracts,"[4]; single i.v. 0.75 mg/kg, male, 24 hr",<LLQ
same,Mean concentration in rat brain extracts,"[4]; single i.v. 1.0 mg/kg, female, 24 hr",<LLQ
same,antibodies to PPD vs control,[5]; 0.05 mg/ml in drinking water,no significant difference
same,antibodies to thyroglobulin vs control,[5]; day 7,no significant difference
same,antibodies to thyroglobulin vs control,"[5]; day 14, p=0.086",tended to have lower thyroglobulin antibodies
same,antibodies to thyroglobulin vs control,[5]; day 21,no significant difference
same,p65 phosphorylation in brain,[6],reduced p65 phosphorylation in mouse brain
